Counter-ions that a name gives are not always drawn.

The term Ki denotes a dissociation constant, usually derived from enzyme kinetics or from competition with a known ligand. A higher Ki goes with lower affinity.

This assay addresses T1, M3 muscarinic receptor (Homo sapiens, UniProt P20309).
T1 construct: purchased
Nature of the assay: Muscarinic receptor radioligand binding assay ([3H]-NMS), M3. Conditions: cell membranes expressing human M3 receptor. As to the method: The inhibitory effects of compounds of the present invention at the M3 muscarinic receptor and (in the case of Example 77) the β2 adrenergic receptor, were determined by the following binding assays:
Radioligand binding studies utilising [^3H]-N-methyl scopolamine ([^3H]-NMS) and commercially available cell membranes expressing the human muscarinic receptors (M2 and M3) were used to assess the affinity of muscarinic antagonists for M2 and M3 receptors. Membranes in TRIS buffer were incubated in 96-well plates with [^3H]-NMS and M3 antagonist at various concentrations for 3 hours. Membranes and bound radioligand were then harvested by filtration and allowed to dry overnight. Scintillation fluid was then added and the bound radioligand counted using a Can berra Packard Topcount scintillation counter

T1 sequence (P20309 whole entry): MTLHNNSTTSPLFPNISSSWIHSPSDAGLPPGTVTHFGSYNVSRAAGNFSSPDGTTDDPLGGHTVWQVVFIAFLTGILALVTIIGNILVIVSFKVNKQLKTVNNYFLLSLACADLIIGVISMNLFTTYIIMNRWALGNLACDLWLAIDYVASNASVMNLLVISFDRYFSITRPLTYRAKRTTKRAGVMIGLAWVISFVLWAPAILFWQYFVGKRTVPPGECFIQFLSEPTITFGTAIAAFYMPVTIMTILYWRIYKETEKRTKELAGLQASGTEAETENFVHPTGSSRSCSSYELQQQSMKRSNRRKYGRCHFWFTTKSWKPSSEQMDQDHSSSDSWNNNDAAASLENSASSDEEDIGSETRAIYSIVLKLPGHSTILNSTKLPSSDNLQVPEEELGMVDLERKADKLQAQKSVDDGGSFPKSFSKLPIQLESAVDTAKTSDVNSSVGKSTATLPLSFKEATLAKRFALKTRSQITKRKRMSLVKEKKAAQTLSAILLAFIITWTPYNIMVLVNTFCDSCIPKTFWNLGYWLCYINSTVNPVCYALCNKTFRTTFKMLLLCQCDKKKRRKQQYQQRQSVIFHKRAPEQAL

On to `CN(C)Cc1cnc([C@@](O)(c2ccccc2)C2CCCCC2)o1` (single isomer, unassigned) [Example 5], for which the Ki was > 10 nM.
For `CN(C)Cc1cnc([C@](O)(c2ccccc2)C2CCCCC2)o1` (single isomer, unassigned) [Example 6], the Ki was < 1 nM.
`CN(CCCOc1ccccc1)Cc1cnc([C@@](O)(c2ccccc2)C2CCCCC2)o1` (single isomer, unassigned) [Example 14]: the inhibition constant (Ki) was > 10 nM.
As for `CN(CCCOc1ccccc1)Cc1cnc([C@](O)(c2ccccc2)C2CCCCC2)o1` (single isomer, unassigned) [Example 15], the Ki lay in the range of 1 to 10 nM.
Take `CN(Cc1ccccc1)Cc1cnc([C@](O)(c2ccccc2)C2CCCC2)o1` (single isomer, unassigned) [Example 28, {5-[(Benzyl-methyl-amino)-methyl]-oxazol-2-yl}-cyclopentyl-phenyl-methanol]: the Ki was > 10 nM.
Then `CN(Cc1ccccc1)Cc1cnc([C@@](O)(c2ccccc2)C2CCCC2)o1` (single isomer, unassigned) [Example 29, {5-[(Benzyl-methyl-amino)-methyl]-oxazol-2-yl}-cyclopentyl-phenyl-methanol], with > 10 nM.
The molecule `CN(C)CCc1cnc(C(O)(c2ccccc2)C2CCCCC2)o1` (single isomer, unassigned) [Example 66] had a Ki of 1 to 10 nM.
For `CN(C)CCc1cnc(C(O)(c2ccccc2)C2CCCCC2)o1` (single isomer, unassigned) [Example 67], the Ki was < 1 nM.
On to `C[N+](C)(CCCOc1ccccc1)CCc1cnc(C(O)(c2ccccc2)C2CCCCC2)o1` (single isomer, unassigned) [Example 68, {2-[2-(Cyclohexyl-hydroxy-phenyl-methyl)-oxazol-5-yl]-ethyl}-dimethyl-(3-phenoxy-propyl)-ammonium bromide], for which the Ki lay in the range of 1 to 10 nM.
For `C[N+](C)(CCCOc1ccccc1)CCc1cnc(C(O)(c2ccccc2)C2CCCCC2)o1` (single isomer, unassigned) [Example 69, {2-[2-(Cyclohexyl-hydroxy-phenyl-methyl)-oxazol-5-yl]-ethyl}-dimethyl-(3-phenoxy-propyl)-ammonium bromide] the value was < 1 nM.
Regarding `C[N+](C)(CCCOc1ccccc1)Cc1cnc([C@@](O)(c2ccccc2)C2CCCC2)o1` (stereo in doubt) [Example 36, [2-(Cyclopentyl-hydroxy-phenyl-methyl)-oxazol-5-ylmethyl]-dimethyl-(3-phenoxy-propyl)-ammonium bromide], the inhibition constant (Ki) was < 1 nM.
In the case of `C[N+](C)(Cc1ccccc1)Cc1cnc([C@@](O)(c2ccccc2)C2CCCC2)o1` (stereo in doubt) [Example 60, Benzyl-[2-(cyclopentyl-hydroxy-phenyl-methyl)-oxazol-5-ylmethyl]-dimethyl-ammonium bromide], the Ki is > 10 nM.
For `CN(C)Cc1cnc(C(O)(c2ccccc2)c2ccccc2)o1` [Example 1, (5-Dimethylaminomethyl-oxazol-2-yl)-diphenyv-methanol] the value was 1 to 10 nM; for `C[N+](C)(CCCOc1ccccc1)Cc1cnc(C(O)(c2ccccc2)c2ccccc2)o1` [Example 2, [2-(Hydroxy-diphenyl-methyl)-oxazol-5-ylmethyl]-dimethyl-(3-phenoxy-propyl)-ammonium formate], < 1 nM; for `CN(C)Cc1cnc(C(O)(c2ccccc2)C2CCCCC2)o1` (stereo not drawn) [Example 4, Cyclohexyl-(5-dimethylaminomethyl-oxazol-2-yl)-phenyl-methanol], < 1 nM.
The molecule `C[N+](C)(CCCOc1ccccc1)Cc1cnc([C@@](O)(c2ccccc2)C2CCCCC2)o1` [Example 7, [2-((S)-Cyclohexyl-hydroxy-phenyl-methyl)-oxazol-5-ylmethyl]-dimethyl-(3-phenoxy-propyl)-ammonium bromide] returned a Ki of 1 to 10 nM.
Then `C[N+](C)(CCCOc1ccccc1)Cc1cnc([C@](O)(c2ccccc2)C2CCCCC2)o1` [Example 8, [2-((R)-Cyclohexyl-hydroxy-phenyl-methyl)-oxazol-5-ylmethyl]-dimethyl-(3-phenoxy-propyl)-ammonium bromide], with < 1 nM; and `CN(CCCOc1ccccc1)Cc1cnc(C(O)(c2ccccc2)C2CCCCC2)o1` (stereo not drawn) [Example 13, Cyclohexyl-(5-{[methyl-(3-phenoxy-propyl)-amino]-methyl}-oxazol-2-yl)-phenyl-methanol], with 1 to 10 nM; and `OC(c1ccccc1)(c1ccccc1)c1ncc(CN2CCC(Oc3ccccc3)CC2)o1` [Example 26, [5-(4-Phenoxy-piperidin-1-ylmethyl)-oxazol-2-yl]-diphenyl-methanol], with > 10 nM.
On to `CN(C)Cc1cnc(C(C)(c2ccccc2)c2ccccc2)o1` [Example 30, [2-(1,1-Diphenyl-ethyl)-oxazol-5-ylmethyl]-dimethyl-amine], for which the Ki is > 10 nM.
With `C[N+](C)(CCc1ccccc1)Cc1cnc([C@@](O)(c2ccccc2)C2CCCCC2)o1` [Example 31, [2-((S)-Cyclohexyl-hydroxy-phenyl-methyl)-oxazol-5-ylmethyl]-dimethyl-phenethyl-ammonium bromide], the Ki is > 10 nM.
As to `C[N+](C)(CCc1ccccc1)Cc1cnc([C@](O)(c2ccccc2)C2CCCCC2)o1` [Example 32, [2-((R)-Cyclohexyl-hydroxy-phenyl-methyl)-oxazol-5-ylmethyl]-dimethyl-phenethyl-ammonium bromide], the Ki was < 1 nM.
Then `CC(C)=CCC[N+](C)(C)Cc1cnc([C@](O)(c2ccccc2)C2CCCCC2)o1` [Example 33, [2-((R)-Cyclohexyl-hydroxy-phenyl-methyl)-oxazol-5-ylmethyl]-dimethyl-(4-methyl-pent-3-enyl)-ammonium bromide], with < 1 nM; and `C[N+](C)(CCc1ccc2c(c1)CCO2)Cc1cnc([C@](O)(c2ccccc2)C2CCCCC2)o1` [Example 34, [2-((R)-Cyclohexyl-hydroxy-phenyl-methyl)-oxazol-5-ylmethyl]-[2-(2,3-dihydro-benzofuraan-5-yl)-ethyl]-dimethyl-ammonium bromide], with < 1 nM; and `Cc1cccc(C[N+](C)(C)Cc2cnc([C@](O)(c3ccccc3)C3CCCCC3)o2)n1` [Example 35, [2-((R)-cyclohexyl-hydroxy-phenyl-methyl)-oxazol-5-ylmethyl]-dimethyl-(6-methyl-pyridin-2-ylmethyl)-ammonium formate], with 1 to 10 nM.
With `C[N+](C)(CCCOc1ccccc1)Cc1cnc([C@](O)(c2ccccc2)C2CCCC2)o1` [Example 37, [2-(Cyclopentyl-hydroxy-phenyl-methyl)-oxazol-5-ylmethyl]-dimethyl-(3-phenoxy-propyl)-ammonium bromide], the Ki is < 1 nM.
Then `O[C@](c1ccccc1)(c1ncc(C[N+]2(CCCOc3ccccc3)CCCCC2)o1)C1CCCCC1` [Example 38, 1-[2-(Cyclohexyl-hydroxy-phenyl-methyl)-oxazol-5-ylmethyl]-1-(3-phenoxy-propyl)-piperidinium bromide], with 1 to 10 nM; and `O[C@@](c1ccccc1)(c1ncc(C[N+]2(CCCOc3ccccc3)CCCCC2)o1)C1CCCCC1` [Example 39, 1-[2-(Cyclohexyl-hydroxy-phenyl-methyl)-oxazol-5-ylmethyl]-1-(3-phenoxy-propyl)-piperidinium bromide], with > 10 nM; and `O[C@](c1ccccc1)(c1ncc(C[N+]2(CCCOc3ccccc3)CCCC2)o1)C1CCCCC1` [Example 40, 1-[2-(Cyclohexyl-hydroxy-phenyl-methyl)-oxazol-5-ylmethyl]-1-(3-phenoxy-propyl)-pyrrolidinium bromide], with < 1 nM.
Consider `O[C@@](c1ccccc1)(c1ncc(C[N+]2(CCCOc3ccccc3)CCCC2)o1)C1CCCCC1` [Example 41, 1-[2-(Cyclohexyl-hydroxy-phenyl-methyl)-oxazol-5-ylmethyl]-1-(3-phenoxy-propyl)-pyrrolidinium bromide], for which the Ki is > 10 nM.
`COCCCCCCCC[N+](C)(C)Cc1cnc([C@](O)(c2ccccc2)C2CCCCC2)o1` [Example 42, [2-((R)-Cyclohexyl-hydroxy-phenyl-methyl)-oxazol-5-ylmethyl]-(8-methoxy-octyl)-dimethyl-ammonium formate] came in with a Ki of 1 to 10 nM.
For `C[N+](C)(CCCCOc1ccccc1)Cc1cnc([C@](O)(c2ccccc2)C2CCCCC2)o1` [Example 43, [2-((R)-Cyclohexyl-hydroxy-phenyl-methyl)-oxazol-5-ylmethyl]-dimethyl-(4-phenoxy-butyl)-ammonium bromide] the value was < 1 nM.
As for `C[N+](C)(CCOCc1ccccc1)Cc1cnc([C@](O)(c2ccccc2)C2CCCCC2)o1` [Example 44, (2-Benzyloxy-ethyl)-[2-((R)-cyclohexyl-hydroxy-phenyl-methyl)-oxazol-5-ylmethyl]-dimethyl-ammonium bromide], the Ki is < 1 nM.
For `C[N+](C)(CCCCc1ccccc1)Cc1cnc([C@](O)(c2ccccc2)C2CCCCC2)o1` [Example 45, [2-((R)-Cyclohexyl-hydroxy-phenyl-methyl)-oxazol-5-ylmethyl]-dimethyl-(4-phenyl-butyl)-ammonium bromide] the value was < 1 nM; for `C[N+](C)(CCCOc1ccc(F)cc1)Cc1cnc([C@](O)(c2ccccc2)C2CCCCC2)o1` [Example 46, [2-((R)-Cyclohexyl-hydroxy-phenyl-methyl)-oxazol-5-ylmethyl]-[3-(4-fluoro-phenoxy)-propyl]-dimethyl-ammonium bromide], < 1 nM; for `CN(CCCCCCCC[N+](C)(C)Cc1cnc([C@](O)(c2ccccc2)C2CCCCC2)o1)C(=O)OC(C)(C)C` [Example 47, [8-(tert-butoxycarbonyl-methyl-amino)-octyl]-[2-((R)-cyclohexyl-hydroxy-phenyl-methyl)-oxazol-5-ylmethyl]-dimethyl-ammonium methanesulfonate], 1 to 10 nM.

Source of the values: patent US20100113540A1, “Azole and Thiazole Derivatives and Their Use” (ARGENTA DISCOVERY LIMITED, priority 2005, published 2010).
